pIC50: −log10 of the molar value.
How the values were obtained:
[1] = target: Ribosomal protein S6 kinase alpha-1 (Homo sapiens) (UniProt Q15418); test: Inhibition of Rsk1 assessed as activity remaining at 10 uM
[2] = target: Serine/threonine-protein kinase PLK3 (Homo sapiens) (UniProt Q9H4B4); test: Inhibition of Plk3 assessed as activity remaining at 10 uM
[3] = target: T1, Serine/threonine-protein kinase Chk1 (Homo sapiens) (UniProt O14757); test: Inhibition of CHK1 assessed as activity remaining at 10 uM
T1 sequence (whole entry): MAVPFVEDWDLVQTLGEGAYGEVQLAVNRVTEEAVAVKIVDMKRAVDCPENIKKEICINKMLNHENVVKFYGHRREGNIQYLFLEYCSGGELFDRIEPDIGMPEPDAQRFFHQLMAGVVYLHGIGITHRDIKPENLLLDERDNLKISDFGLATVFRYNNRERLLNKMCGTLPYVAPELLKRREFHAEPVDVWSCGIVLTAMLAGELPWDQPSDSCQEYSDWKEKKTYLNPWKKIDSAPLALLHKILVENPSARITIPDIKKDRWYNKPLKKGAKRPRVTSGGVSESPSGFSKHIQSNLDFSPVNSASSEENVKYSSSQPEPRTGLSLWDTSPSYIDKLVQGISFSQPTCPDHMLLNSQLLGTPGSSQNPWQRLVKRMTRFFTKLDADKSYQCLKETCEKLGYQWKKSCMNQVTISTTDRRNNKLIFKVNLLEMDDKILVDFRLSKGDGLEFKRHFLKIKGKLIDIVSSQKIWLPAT

[4] = target: Macrophage colony-stimulating factor 1 receptor (Homo sapiens) (UniProt P07333); test: Inhibition of Fms assessed as activity remaining at 10 uM
[5] = target: Fibroblast growth factor receptor 1 (Homo sapiens) (UniProt P11362); test: Inhibition of FGFR1 assessed as activity remaining at 10 uM
[6] = Inhibition of p70S6K assessed as activity remaining at 10 uM
[7] = target: Misshapen-like kinase 1 (Homo sapiens) (UniProt Q8N4C8); test: Inhibition of MINK assessed as activity remaining at 10 uM
Sequence of Misshapen-like kinase 1 (Homo sapiens) (Q8N4C8 whole entry, looked up): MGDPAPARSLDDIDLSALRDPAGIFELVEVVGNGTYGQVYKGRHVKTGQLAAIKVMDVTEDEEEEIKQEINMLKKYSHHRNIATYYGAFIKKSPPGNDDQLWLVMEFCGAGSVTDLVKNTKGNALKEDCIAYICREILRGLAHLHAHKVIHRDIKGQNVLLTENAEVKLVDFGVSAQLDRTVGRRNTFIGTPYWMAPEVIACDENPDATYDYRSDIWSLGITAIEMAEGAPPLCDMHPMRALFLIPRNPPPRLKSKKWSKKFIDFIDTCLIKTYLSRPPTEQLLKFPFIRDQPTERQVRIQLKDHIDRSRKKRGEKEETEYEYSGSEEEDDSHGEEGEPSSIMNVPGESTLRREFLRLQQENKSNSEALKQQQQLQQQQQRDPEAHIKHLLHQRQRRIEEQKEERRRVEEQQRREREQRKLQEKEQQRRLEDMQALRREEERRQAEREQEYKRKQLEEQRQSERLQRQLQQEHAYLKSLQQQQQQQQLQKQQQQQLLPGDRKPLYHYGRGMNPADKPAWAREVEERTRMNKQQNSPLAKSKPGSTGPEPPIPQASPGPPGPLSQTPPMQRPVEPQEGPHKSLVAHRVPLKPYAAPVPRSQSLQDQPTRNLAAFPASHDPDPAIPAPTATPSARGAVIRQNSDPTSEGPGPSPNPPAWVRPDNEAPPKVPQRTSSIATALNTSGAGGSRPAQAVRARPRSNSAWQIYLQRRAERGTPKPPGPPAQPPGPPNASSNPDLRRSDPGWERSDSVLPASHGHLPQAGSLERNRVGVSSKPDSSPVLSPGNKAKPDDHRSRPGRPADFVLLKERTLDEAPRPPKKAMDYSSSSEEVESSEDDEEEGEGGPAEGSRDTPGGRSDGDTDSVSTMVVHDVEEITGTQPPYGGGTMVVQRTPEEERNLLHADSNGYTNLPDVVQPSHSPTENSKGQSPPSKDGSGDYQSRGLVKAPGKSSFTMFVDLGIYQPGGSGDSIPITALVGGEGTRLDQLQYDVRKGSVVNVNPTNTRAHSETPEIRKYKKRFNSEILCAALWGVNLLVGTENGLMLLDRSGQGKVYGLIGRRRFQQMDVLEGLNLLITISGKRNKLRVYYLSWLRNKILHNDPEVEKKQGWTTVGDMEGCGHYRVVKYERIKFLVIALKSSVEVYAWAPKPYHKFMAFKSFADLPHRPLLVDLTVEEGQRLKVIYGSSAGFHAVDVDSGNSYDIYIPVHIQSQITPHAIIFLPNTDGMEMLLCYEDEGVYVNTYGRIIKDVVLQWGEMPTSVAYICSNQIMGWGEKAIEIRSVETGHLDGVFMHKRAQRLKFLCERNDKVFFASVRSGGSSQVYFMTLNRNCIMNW

[8] = target: Serine/threonine-protein kinase mTOR (Homo sapiens, UniProt P42345); test: Inhibition of mTOR-mediated S6 phosphorylation in human PC3 cells; assay type: cell-based, PC-3
[9] = target: Insulin-like growth factor 1 receptor (Homo sapiens) (UniProt P08069); test: Inhibition of IGF1R assessed as activity remaining at 10 uM
[10] = target: Tyrosine-protein kinase SYK (Homo sapiens) (UniProt P43405); test: Inhibition of Syk assessed as activity remaining at 10 uM
[11] = target: Serine/threonine-protein kinase pim-2 (Homo sapiens) (UniProt Q9P1W9); test: Inhibition of Pim2 assessed as activity remaining at 10 uM
[12] = target: Protein-tyrosine kinase 6 (Homo sapiens) (UniProt Q13882); test: Inhibition of BRK assessed as activity remaining at 10 uM
[13] = target: RAF proto-oncogene serine/threonine-protein kinase (Homo sapiens) (UniProt P04049); test: Inhibition of cRaf assessed as activity remaining at 10 uM
[14] = target: T2, Protein kinase C zeta type (Homo sapiens) (UniProt Q05513); test: Inhibition of PKC-zeta assessed as activity remaining at 10 uM
T2 sequence (whole entry): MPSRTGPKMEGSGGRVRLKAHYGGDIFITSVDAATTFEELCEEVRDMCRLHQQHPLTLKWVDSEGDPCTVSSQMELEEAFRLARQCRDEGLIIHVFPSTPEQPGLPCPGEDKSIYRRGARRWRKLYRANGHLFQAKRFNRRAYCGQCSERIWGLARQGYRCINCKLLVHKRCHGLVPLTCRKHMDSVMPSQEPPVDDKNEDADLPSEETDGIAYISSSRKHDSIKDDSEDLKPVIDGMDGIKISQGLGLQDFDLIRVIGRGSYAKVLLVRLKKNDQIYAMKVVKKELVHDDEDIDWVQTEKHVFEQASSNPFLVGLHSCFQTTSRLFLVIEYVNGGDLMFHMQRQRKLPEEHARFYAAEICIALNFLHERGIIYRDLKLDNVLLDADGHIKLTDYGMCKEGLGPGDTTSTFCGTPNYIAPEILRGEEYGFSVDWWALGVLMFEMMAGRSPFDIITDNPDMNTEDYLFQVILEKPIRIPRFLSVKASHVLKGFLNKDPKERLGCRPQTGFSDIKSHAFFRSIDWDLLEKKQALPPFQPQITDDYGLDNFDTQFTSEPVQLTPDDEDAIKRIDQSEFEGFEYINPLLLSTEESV

[15] = target: High affinity nerve growth factor receptor (Homo sapiens) (UniProt P04629); test: Inhibition of TrkA assessed as activity remaining at 10 uM
[16] = target: Glycogen synthase kinase-3 beta (Homo sapiens) (UniProt P49841); test: Inhibition of GSK3-beta assessed as activity remaining at 10 uM
Sequence of Glycogen synthase kinase-3 beta (Homo sapiens) (P49841 whole entry, looked up): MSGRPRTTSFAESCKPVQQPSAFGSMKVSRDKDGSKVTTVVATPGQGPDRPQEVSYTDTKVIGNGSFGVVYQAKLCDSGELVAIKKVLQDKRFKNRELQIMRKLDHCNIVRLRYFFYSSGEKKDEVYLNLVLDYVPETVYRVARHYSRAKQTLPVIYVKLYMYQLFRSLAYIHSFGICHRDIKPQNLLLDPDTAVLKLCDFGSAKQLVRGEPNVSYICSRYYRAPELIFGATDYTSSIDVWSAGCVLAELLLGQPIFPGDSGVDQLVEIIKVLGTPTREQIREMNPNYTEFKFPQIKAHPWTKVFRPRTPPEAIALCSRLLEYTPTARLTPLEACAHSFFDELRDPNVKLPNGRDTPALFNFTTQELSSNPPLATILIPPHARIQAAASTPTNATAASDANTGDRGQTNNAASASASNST

[17] = target: Mitogen-activated protein kinase 9 (Homo sapiens) (UniProt P45984); test: Inhibition of JNK2alpha2 assessed as activity remaining at 10 uM
[18] = test system: PC-3; test: Antiproliferative activity against human PC3 cells
[19] = target: MAP kinase-activated protein kinase 2 (Homo sapiens) (UniProt P49137); test: Inhibition of MAPKAP-K2 assessed as activity remaining at 10 uM
[20] = target: Protein kinase C theta type (Homo sapiens) (UniProt Q04759); test: Inhibition of PKC-theta assessed as activity remaining at 10 uM
Sequence of Protein kinase C theta type (Homo sapiens) (Q04759 whole entry, looked up): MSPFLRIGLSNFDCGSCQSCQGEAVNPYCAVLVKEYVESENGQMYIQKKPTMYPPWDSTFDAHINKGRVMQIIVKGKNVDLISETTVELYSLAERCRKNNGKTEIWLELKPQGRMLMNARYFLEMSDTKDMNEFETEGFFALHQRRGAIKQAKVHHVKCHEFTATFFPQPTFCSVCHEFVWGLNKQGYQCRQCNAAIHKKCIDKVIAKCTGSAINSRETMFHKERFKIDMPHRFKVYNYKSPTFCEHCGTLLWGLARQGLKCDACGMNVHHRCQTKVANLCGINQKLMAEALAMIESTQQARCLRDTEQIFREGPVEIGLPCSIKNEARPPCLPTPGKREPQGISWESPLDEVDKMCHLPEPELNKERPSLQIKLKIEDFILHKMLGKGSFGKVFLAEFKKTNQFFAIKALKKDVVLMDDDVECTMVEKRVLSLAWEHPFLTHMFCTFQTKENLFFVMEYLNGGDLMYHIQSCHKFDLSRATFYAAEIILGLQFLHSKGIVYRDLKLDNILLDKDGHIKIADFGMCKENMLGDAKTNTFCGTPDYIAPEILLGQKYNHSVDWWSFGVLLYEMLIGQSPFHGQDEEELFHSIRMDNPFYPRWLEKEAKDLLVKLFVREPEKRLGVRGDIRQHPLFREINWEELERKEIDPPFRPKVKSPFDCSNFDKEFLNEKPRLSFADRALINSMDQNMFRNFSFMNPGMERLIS

[21] = Inhibition of PKA assessed as activity remaining at 10 uM
[22] = target: Protein kinase C alpha type (Homo sapiens) (UniProt P17252); test: Inhibition of PKC-alpha assessed as activity remaining at 10 uM
[23] = target: T3, Serine/threonine-protein kinase Nek2 (Homo sapiens) (UniProt P51955); test: Inhibition of NEK2 assessed as activity remaining at 10 uM
T3 sequence (whole entry): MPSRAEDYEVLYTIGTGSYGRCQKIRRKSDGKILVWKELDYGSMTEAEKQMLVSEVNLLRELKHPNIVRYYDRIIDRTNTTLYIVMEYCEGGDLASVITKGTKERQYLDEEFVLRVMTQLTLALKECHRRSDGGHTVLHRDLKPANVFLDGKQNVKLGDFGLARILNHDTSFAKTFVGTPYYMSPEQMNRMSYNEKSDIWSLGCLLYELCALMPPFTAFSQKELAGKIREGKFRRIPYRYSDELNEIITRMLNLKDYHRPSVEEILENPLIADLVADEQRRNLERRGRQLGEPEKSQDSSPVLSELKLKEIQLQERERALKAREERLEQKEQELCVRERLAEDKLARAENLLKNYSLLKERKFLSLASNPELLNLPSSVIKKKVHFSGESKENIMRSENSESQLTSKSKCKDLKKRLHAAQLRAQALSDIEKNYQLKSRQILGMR

[24] = target: Hepatocyte growth factor receptor (Homo sapiens) (UniProt P08581); test: Inhibition of Met assessed as activity remaining at 10 uM
Sequence of Hepatocyte growth factor receptor (Homo sapiens) (P08581 whole entry): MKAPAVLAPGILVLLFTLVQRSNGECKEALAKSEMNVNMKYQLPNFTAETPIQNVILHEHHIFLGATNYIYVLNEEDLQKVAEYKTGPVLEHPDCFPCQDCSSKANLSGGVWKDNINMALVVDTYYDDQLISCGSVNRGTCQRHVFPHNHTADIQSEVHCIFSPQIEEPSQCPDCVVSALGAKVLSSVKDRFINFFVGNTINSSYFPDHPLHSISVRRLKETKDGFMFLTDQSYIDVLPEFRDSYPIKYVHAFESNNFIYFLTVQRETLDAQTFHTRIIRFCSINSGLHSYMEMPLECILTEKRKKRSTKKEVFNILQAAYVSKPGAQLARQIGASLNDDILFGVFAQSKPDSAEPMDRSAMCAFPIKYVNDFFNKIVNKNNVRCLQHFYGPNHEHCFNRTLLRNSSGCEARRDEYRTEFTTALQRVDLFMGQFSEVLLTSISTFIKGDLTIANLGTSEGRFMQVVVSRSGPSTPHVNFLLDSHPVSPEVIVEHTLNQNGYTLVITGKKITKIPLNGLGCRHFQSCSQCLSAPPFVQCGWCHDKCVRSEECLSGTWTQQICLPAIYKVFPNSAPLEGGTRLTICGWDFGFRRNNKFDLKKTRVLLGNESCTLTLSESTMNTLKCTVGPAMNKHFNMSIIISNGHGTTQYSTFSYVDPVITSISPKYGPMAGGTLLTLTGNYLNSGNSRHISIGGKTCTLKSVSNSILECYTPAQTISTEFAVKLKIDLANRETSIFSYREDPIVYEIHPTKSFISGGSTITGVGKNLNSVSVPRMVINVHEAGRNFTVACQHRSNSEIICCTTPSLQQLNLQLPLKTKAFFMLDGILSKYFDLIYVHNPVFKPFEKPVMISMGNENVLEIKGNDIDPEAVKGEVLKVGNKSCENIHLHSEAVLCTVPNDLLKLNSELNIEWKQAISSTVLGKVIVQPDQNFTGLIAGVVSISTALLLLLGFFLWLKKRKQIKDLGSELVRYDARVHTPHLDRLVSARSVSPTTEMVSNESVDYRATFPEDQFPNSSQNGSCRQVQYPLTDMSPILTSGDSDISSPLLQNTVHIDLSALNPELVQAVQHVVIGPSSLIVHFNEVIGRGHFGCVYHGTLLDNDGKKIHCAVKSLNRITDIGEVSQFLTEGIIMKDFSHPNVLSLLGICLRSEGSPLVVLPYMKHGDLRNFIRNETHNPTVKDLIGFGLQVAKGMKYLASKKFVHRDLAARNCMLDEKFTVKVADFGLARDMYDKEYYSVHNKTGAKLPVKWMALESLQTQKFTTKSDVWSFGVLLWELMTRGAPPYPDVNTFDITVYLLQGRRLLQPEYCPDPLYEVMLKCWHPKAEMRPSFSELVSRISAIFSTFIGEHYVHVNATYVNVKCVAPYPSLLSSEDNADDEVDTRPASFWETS

[25] = target: Tyrosine-protein kinase Yes (Homo sapiens) (UniProt P07947); test: Inhibition of Yes assessed as activity remaining at 10 uM
Sequence of Tyrosine-protein kinase Yes (Homo sapiens) (P07947 2-543 limits assumed): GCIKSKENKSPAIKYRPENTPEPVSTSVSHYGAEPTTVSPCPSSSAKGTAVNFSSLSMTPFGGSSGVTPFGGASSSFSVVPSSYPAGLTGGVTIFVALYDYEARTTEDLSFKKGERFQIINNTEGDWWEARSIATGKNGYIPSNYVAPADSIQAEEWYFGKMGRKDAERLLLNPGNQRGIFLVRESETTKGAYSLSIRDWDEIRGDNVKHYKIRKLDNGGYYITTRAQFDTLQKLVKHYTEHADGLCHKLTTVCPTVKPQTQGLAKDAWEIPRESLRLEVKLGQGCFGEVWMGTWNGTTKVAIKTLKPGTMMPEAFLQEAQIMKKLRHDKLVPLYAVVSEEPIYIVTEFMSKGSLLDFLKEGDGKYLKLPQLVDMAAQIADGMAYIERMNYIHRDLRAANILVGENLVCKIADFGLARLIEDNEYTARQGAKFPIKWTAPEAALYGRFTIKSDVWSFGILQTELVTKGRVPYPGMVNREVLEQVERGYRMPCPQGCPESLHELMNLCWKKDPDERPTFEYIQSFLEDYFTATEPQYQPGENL

Sequence of Serine/threonine-protein kinase PLK3 (Homo sapiens) (Q9H4B4 whole entry, looked up): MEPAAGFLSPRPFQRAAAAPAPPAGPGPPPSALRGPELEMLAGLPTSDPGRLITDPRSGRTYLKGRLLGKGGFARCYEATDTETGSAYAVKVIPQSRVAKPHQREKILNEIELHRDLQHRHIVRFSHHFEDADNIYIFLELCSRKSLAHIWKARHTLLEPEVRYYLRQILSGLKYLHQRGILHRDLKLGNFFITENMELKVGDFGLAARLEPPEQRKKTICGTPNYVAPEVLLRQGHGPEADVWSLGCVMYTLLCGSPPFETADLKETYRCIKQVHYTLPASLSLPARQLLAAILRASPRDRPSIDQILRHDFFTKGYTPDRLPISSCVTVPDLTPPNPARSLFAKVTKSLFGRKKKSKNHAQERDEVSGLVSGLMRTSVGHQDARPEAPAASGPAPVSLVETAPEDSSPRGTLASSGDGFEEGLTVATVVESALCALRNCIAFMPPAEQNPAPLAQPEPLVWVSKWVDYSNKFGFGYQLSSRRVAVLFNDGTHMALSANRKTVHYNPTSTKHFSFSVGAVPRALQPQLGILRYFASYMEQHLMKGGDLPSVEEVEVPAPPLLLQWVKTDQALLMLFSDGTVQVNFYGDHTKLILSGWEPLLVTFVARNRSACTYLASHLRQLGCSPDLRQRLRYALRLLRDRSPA

Row | SMILES | Activity [1] [%] | Activity [2] [%] | Activity [3] [%] | Activity [4] [%] | Activity [5] [%] | Activity [6] [%] | Activity [7] [%] | pIC50 [8] | Activity [9] [%] | Activity [10] [%] | Activity [11] [%] | Activity [12] [%] | Activity [13] [%] | Activity [14] [%] | Activity [15] [%] | Activity [16] [%] | Activity [17] [%] | pIC50 [18] | Activity [19] [%] | Activity [20] [%] | also measured
1 | O=c1[nH]c2ncc(-c3ccc4[nH]cnc4c3)nc2n1CC1CCCCC1 | 74 | 94 | 88 | 23 | 63 | 86 | 42 | 6.37 | 96 | 40 | 101 | 82 | 84 | 75 | 61 | 10 | 85 | 5.94 | 89 | 73 | Activity [21]: 90%; Activity [22]: 82%; Activity [23]: 98%; Activity [24]: 66%; Activity [25]: 73%
2 | CC(C)(O)c1ccc(-c2cnc3[nH]c(=O)n(CC4CCCCC4)c3n2)cc1 | 89 | 89 | 93 | 26 | 94 | 99 | 83 | 5.87 | 91 | 95 | 91 | 92 | 87 | 91 | 86 | 31 | 110 | 5.86 | 99 | 80 | Activity [21]: 95%; Activity [22]: 83%; Activity [23]: 98%; Activity [24]: 94%; Activity [25]: 74%
3 | O=c1[nH]c2ncc(-c3ccc(-c4nc[nH]n4)cc3)nc2n1CC1CCOCC1 | 93 | 108 | 97 | 37 | 93 | 96 | 92 | 6.56 | 95 | 48 | 93 | 93 | 70 | 94 | 77 | 70 | 79 | 5.86 | 93 | 82 | Activity [21]: 95%; Activity [22]: 86%; Activity [23]: 103%; Activity [24]: 92%; Activity [25]: 87%

Reference: ChEMBL document CHEMBL1944561, “Discovery and SAR exploration of a novel series of imidazo[4,5-b]pyrazin-2-ones as potent and selective mTOR kinase inhibitors” (Bioorg Med Chem Lett, 2011)
